Source: PubChem BioAssay AID1963424 (Molecular Pharmacology Branch, DTP, NCI, 2024)

System: 327498-153-R-J2-PDC complex spheroid growth, % test/control
Experiment: Anticancer human tumor 327498-153-R-J2-PDC patient-derived uterine carcinosarcoma cell line growth inhibition [Asc]
Settings: for IC50: curve of first compound; for viability, T/C: stronger effect = lower value; active = viability on the fitted dose curve at most 10% of control; inactive = the rest
How it was run: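 Tumor cells were grown as multicellular spheroids with stromal HUVEC and mesenchymal stem cells and treated singly or in combination. Concentrations fell in half-log steps from the clinical Cmax, or from 10 microM where none was known.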
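Also: spheroids exposed to compound for 7 days after 3 days of growth.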
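For viability, T/C in this document: 100% = DMSO vehicle control wells.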

NC(=O)C(=Cn1cnc(-c2cc(C(F)(F)F)cc(C(F)(F)F)c2)n1)c1cncnc1 + Cc1c(S(C)(=O)=O)c(-c2cc(F)cc(N3CCN(c4ccc(NS(=O)(=O)c5ccc(NC(CCN6CCC(C(=O)OCCCP(=O)(O)O)CC6)CSc6ccccc6)c(S(=O)(=O)C(F)(F)F)c5)cc4)CC3)c2)c(-c2ccc(Cl)cc2)n1C(C)C
active: viability, T/C (second compound 0.1 µM, first compound 0.3 µM) 0.77% | viability, T/C (second compound 0.316 µM, first compound 0.0949 µM) 4.86% | viability, T/C (second compound 0.316 µM, first compound 0.3 µM) 0.51% | viability, T/C (second compound 1 µM, first compound 0.0949 µM) 3.7% | viability, T/C (second compound 1 µM, first compound 0.3 µM) 1.44% | viability, T/C (second compound 3.16 µM, first compound 0.0949 µM) 4.58% | viability, T/C (second compound 3.16 µM, first compound 0.3 µM) 0.43% | viability, T/C (second compound 10 µM, first compound 0.0949 µM) 4.73% | viability, T/C (second compound 10 µM, first compound 0.3 µM) 0.54%
36.4 nM: IC50 (second compound 0.1 µM)
39.4 nM: IC50 (second compound 0.316 µM)
46.6 nM: IC50 (second compound 10 µM)
30.5 nM: IC50 (second compound 3.16 µM)
31.2 nM: IC50 (second compound 1 µM)
inactive: viability, T/C (second compound 0.1 µM, first compound 0.000949 µM) 88.6% | viability, T/C (second compound 0.1 µM, first compound 0.003 µM) 91.2% | viability, T/C (second compound 0.1 µM, first compound 0.00949 µM) 84.6% | viability, T/C (second compound 0.1 µM, first compound 0.03 µM) 58.4% | viability, T/C (second compound 0.1 µM, first compound 0.0949 µM) 9.68% | viability, T/C (second compound 0.316 µM, first compound 0.000949 µM) 98.2% | viability, T/C (second compound 0.316 µM, first compound 0.003 µM) 93.3% | viability, T/C (second compound 0.316 µM, first compound 0.00949 µM) 86.8% | viability, T/C (second compound 0.316 µM, first compound 0.03 µM) 64.3% | viability, T/C (second compound 1 µM, first compound 0.000949 µM) 99.7% | viability, T/C (second compound 1 µM, first compound 0.003 µM) 94.6% | viability, T/C (second compound 1 µM, first compound 0.00949 µM) 87.1% | viability, T/C (second compound 1 µM, first compound 0.03 µM) 53.1% | viability, T/C (second compound 3.16 µM, first compound 0.000949 µM) 95.8% | viability, T/C (second compound 3.16 µM, first compound 0.003 µM) 90.7% | viability, T/C (second compound 3.16 µM, first compound 0.00949 µM) 93.4% | viability, T/C (second compound 3.16 µM, first compound 0.03 µM) 50.5% | viability, T/C (second compound 10 µM, first compound 0.000949 µM) 168% | viability, T/C (second compound 10 µM, first compound 0.003 µM) 168% | viability, T/C (second compound 10 µM, first compound 0.00949 µM) 168% | viability, T/C (second compound 10 µM, first compound 0.03 µM) 78.8%

NC1CCC(NC2CC2c2ccccc2)CC1 (stereo not given) + Cc1c(S(C)(=O)=O)c(-c2cc(F)cc(N3CCN(c4ccc(NS(=O)(=O)c5ccc(NC(CCN6CCC(C(=O)OCCCP(=O)(O)O)CC6)CSc6ccccc6)c(S(=O)(=O)C(F)(F)F)c5)cc4)CC3)c2)c(-c2ccc(Cl)cc2)n1C(C)C
> 100 nM: IC50 (second compound 0.1 µM) | IC50 (second compound 0.316 µM) | IC50 (second compound 1 µM) | IC50 (second compound 3.16 µM) | IC50 (second compound 10 µM)
inactive: viability, T/C (second compound 0.1 µM, first compound 0.000316 µM) 98.9% | viability, T/C (second compound 0.1 µM, first compound 0.001 µM) 109% | viability, T/C (second compound 0.1 µM, first compound 0.00316 µM) 104% | viability, T/C (second compound 0.1 µM, first compound 0.01 µM) 95.6% | viability, T/C (second compound 0.1 µM, first compound 0.0316 µM) 100% | viability, T/C (second compound 0.1 µM, first compound 0.1 µM) 98% | viability, T/C (second compound 0.316 µM, first compound 0.000316 µM) 89.6% | viability, T/C (second compound 0.316 µM, first compound 0.001 µM) 99.5% | viability, T/C (second compound 0.316 µM, first compound 0.00316 µM) 95% | viability, T/C (second compound 0.316 µM, first compound 0.01 µM) 88.3% | viability, T/C (second compound 0.316 µM, first compound 0.0316 µM) 93.8% | viability, T/C (second compound 0.316 µM, first compound 0.1 µM) 95.5% | viability, T/C (second compound 1 µM, first compound 0.000316 µM) 94.2% | viability, T/C (second compound 1 µM, first compound 0.001 µM) 96.6% | viability, T/C (second compound 1 µM, first compound 0.00316 µM) 90.4% | viability, T/C (second compound 1 µM, first compound 0.01 µM) 91.5% | viability, T/C (second compound 1 µM, first compound 0.0316 µM) 96.8% | viability, T/C (second compound 1 µM, first compound 0.1 µM) 90.6% | viability, T/C (second compound 3.16 µM, first compound 0.000316 µM) 98.9% | viability, T/C (second compound 3.16 µM, first compound 0.001 µM) 91.4% | viability, T/C (second compound 3.16 µM, first compound 0.00316 µM) 92.6% | viability, T/C (second compound 3.16 µM, first compound 0.01 µM) 86.3% | viability, T/C (second compound 3.16 µM, first compound 0.0316 µM) 96.8% | viability, T/C (second compound 3.16 µM, first compound 0.1 µM) 90.1% | viability, T/C (second compound 10 µM, first compound 0.000316 µM) 177% | viability, T/C (second compound 10 µM, first compound 0.001 µM) 173% | viability, T/C (second compound 10 µM, first compound 0.00316 µM) 160% | viability, T/C (second compound 10 µM, first compound 0.01 µM) 158% | viability, T/C (second compound 10 µM, first compound 0.0316 µM) 168% | viability, T/C (second compound 10 µM, first compound 0.1 µM) 181%
